The source of these data is patent US20050171014A1, “Conjugates of ligand linker and cytotoxic agent and related composition and methods of use” (Government of the United States of America, represented by …, priority 2003, published 2005).

Data set [1] has as its system gastrin receptor-expressing 3T3 cells. Format: cell-based. Particulars: methods of Example 7. The procedure:
Isogenic cell lines, one transfected with the target cell surface receptor and the parent cell line without detectable receptor expression, were used for determination of selective activity of toxin conjugates. Transfection of NIH/3T3, CHO and HeLa cells (American Type Culture Collection, Manassas, Va.) with gastrin receptor cDNA (prepared as described in Tarasova et al., J. Biol. Chem. 272: 14817-14824 (1997)) was performed as described (Tarasova et al., J Biol. Chem. 272(23): 14817-14824 (1997)). For the tests, the cells were seeded in 96-well plates at a density of 500-1000 cells per well and allowed to attach for 24 hours. The compounds were added to the cells at concentrations ranging from 10 pM to 10 μM and the cells were grown in a CO2 incubator in the presence of compounds for 4-5 days. The cell number was estimated with either the methylthiazolyldiphenyl-tetrazolium bromide (MTT) assay (Alley et al., Cancer Res. 48(3): 589-601 (1988)) or sulforhodamine assay as described in Skehan et al., J. Natl. Cancer Inst. 82(13): 1107-1112 (1990)).

Data set [2] relates to cathepsin B and cathespin D.

Starred links: 1 amine or outer side, 2 acyl side, 3 side chain; linkers in the order of their positions; H or OH if unused. Non-standard residues stand in square brackets, D forms with d. Residues, ends and D or L forms follow the SMILES beside them. NMePhe(β,β-Me2) = CN[C@H](C(=O)O)C(C)(C)c1ccccc1; X1 = C/C(=C\[C@H](C(C)C)N(C)[*:1])C(=O)[*:2]; Tle = CC(C)(C)[C@H](N)C(=O)O; Nle = CCCC[C@H](N)C(=O)O

Broadly, the IC50 is the point on the concentration scale where inhibition reaches its midpoint. With `CCCC[C@H](NC(=O)[C@H](Cc1c[nH]c2ccccc12)NC(=O)CNC(=O)[C@H](Cc1ccc(O)cc1)NC(=O)[C@H](C)NC(=O)[C@H](CCC(=O)O)NC(=O)[C@H](CCC(=O)O)NC(=O)[C@H](CCC(=O)O)NC(=O)[C@H](C)NC(=O)[C@H](CC(C)C)NC(=O)[C@H](C)NC(=O)[C@H](CC(C)C)NC(=O)[C@@H](NC(=O)/C(C)=C/[C@H](C(C)C)N(C)C(=O)[C@@H](NC(=O)[C@@H](NC)C(C)(C)c1ccccc1)C(C)(C)C)C(C)C)C(=O)N[C@@H](CC(=O)O)C(=O)N[C@@H](Cc1ccccc1)C(N)=O` (H-[NMePhe(β,β-Me2)][Tle][X1]VLALAEEEAYGW[Nle]DF-NH2), in data set [1], the concentration for half-maximal inhibition (IC50) is 1 µM. The “products of hydrolysis by lysosomal proteases” value in data set [2] is on record as “generated mostly pentapeptide or SPA110 extended by Val-Leu on the C-terminus”.
